Reference: US12404272B2, “Process for making a PD-1/PD-L1 inhibitor and salts and crystalline forms thereof” (Incyte Corporation, priority 2020, dated 2025)
Where a name gives a salt, the structure may show the parent alone.

Key:
Type in all cases: physicochemical
[1] = Maturation in solvents (20 vol), dissolution observed; conditions: matured RT-50° C. for 3 days
Protocol: The methanesulfonic acid salt (20 mg) was treated with solvent (20 vol) and matured (RT −50° C., 4 h) for 3 days. Samples were then analyzed by XRPD. Attempts in improve the crystallinity of the scaled up methanesulfonic acid salt was undertaken by subjecting the material to maturation for 72 h in a variety of solvents. A slight improvement in crystallinity was observed from maturing in 2-propanol, ethyl acetate, and tert-butyl methyl ether.

[2] = Static storage at elevated temperature and relative humidity, re-analysis by XRPD
Protocol: In some examples below, X-Ray Powder Diffraction analysis was carried out on a Bruker D8 X-ray Powder Diffractometer (XRPD) instrument using Cu Kα radiation (40 kV, 40 mA) and a θ-2θ goniometer fitted with a Ge monochromator. The incident beam passes through a 2.0 mm divergence slit followed by a 0.2 mm anti-scatter slit and knife edge. The diffracted beam passes through an 8.0 mm receiving slit with 2.5° Soller slits followed by the Lynxeye Detector. The software used for data collection and analysis was Diffrac Plus XRD Commander and Diffrac Plus EVA respectively. Samples were run under ambient conditions as flat plate specimens using powder as received. The sample was prepared on a polished, zero-background (510) silicon wafer by gently pressing onto the flat surface or packed into a cut cavity. The sample was rotated in its own plane. The general experimental procedures for XRPD were: (1) angular range: 2 to 42° 2θ; (2) step size: 0.05° 2θ; and collection time: 0.5 s/step (total collection time: 6.40 min). The extended data collection experimental procedures for XRPD were: (1) angular range: 3 to 30° 2θ; (2) step size: 0.05° 2θ; and collection time: 4 s/step (total collection time: 38.00 min).
In some examples below, X-Ray Powder Diffraction analysis was carried out on a PANalytical Empyrean X-ray Powder Diffractometer (XRPD) instrument using Cu Kα radiation (45 kV, 40 mA) in transmission geometry. A 0.5° slit, 4 mm mask and 0.04 rad Soller slits with a focusing mirror were used on the incident beam. A PIXcel^3D detector, placed on the diffracted beam, was fitted with a receiving slit and 0.04 rad Soller slits. The software used for data collection was X'Pert Data Collector using X'Pert Operator Interface. The data were analysed and presented using Diffrac Plus EVA or HighScore Plus. Samples were prepared and analysed in either a metal or Millipore 96 well-plate in transmission mode. X-ray transparent film was used between the metal sheets on the metal well-plate and powders (approximately 1-2 mg) were used as received. […]

[3] = Gravimetric vapour sorption (GVS)
Protocol: Gravimetric Vapour sorption (GVS) was carried out using a SMS DVS Intrinsic moisture sorption analyser, controlled by DVS Intrinsic Control software. The sample temperature was maintained at 25° C. by the instrument controls. The humidity was controlled by mixing streams of dry and wet nitrogen, with a total flow rate of 200 ml/min. The relative humidity was measured by a calibrated Rotronic probe (dynamic range of 1.0-100% RH), located near the sample. The weight change, (mass relaxation) of the sample as a function of % RH was constantly monitored by a microbalance (accuracy ±0.005 mg).
Typically, 5-30 mg of sample was placed in a tared mesh stainless steel basket under ambient conditions. The sample was loaded and unloaded at 40% RH and 25° C. (typical room conditions). A moisture sorption isotherm was performed as outlined below (2 scans per complete cycle). The standard isotherm was performed at 25° C. at 10% RH intervals over a 0-90% RH range. Typically, a double cycle (4 scans) was carried out.
The sample was recovered after completion of the isotherm and re-analysed by XRPD.

SMILES: Cc1c(Nc2nc(C(F)F)nc3cc(CN4CC[C@@H](O)C4)cnc23)cccc1-c1cccc(-c2nc3cc(CN4CCC(C(=O)O)CC4)cc(C#N)c3o2)c1C [methanesulfonic acid salt, (R)-1-((7-cyano-2-(3′-((2-(difluoromethyl)-7-((3-hydroxypyrrolidin-1-yl)methyl)pyrido[3,2-d]pyrimidin-4-yl)amino)-2,2′-dimethyl-[1,1′-biphenyl]-3-yl)benzo[d]oxazol-5-yl)methyl)piperidine-4-carboxylic acid]
- dissolution in solvent ([1]; ethanol): complete dissolution
- dissolution in solvent ([1]; water): complete dissolution

SMILES: Cc1c(Nc2nc(C(F)F)nc3cc(CN4CC[C@@H](O)C4)cnc23)cccc1-c1cccc(-c2nc3cc(CN4CCC(C(=O)O)CC4)cc(C#N)c3o2)c1C [Free form Form I, (R)-1-((7-cyano-2-(3′-((2-(difluoromethyl)-7-((3-hydroxypyrrolidin-1-yl)methyl)pyrido[3,2-d]pyrimidin-4-yl)amino)-2,2′-dimethyl-[1,1′-biphenyl]-3-yl)benzo[d]oxazol-5-yl)methyl)piperidine-4-carboxylic acid]
- XRPD following static storage ([2]; 7 days at elevated temperature and relative humidity conditions): remained unchanged

SMILES: Cc1c(Nc2nc(C(F)F)nc3cc(CN4CC[C@@H](O)C4)cnc23)cccc1-c1cccc(-c2nc3cc(CN4CCC(C(=O)O)CC4)cc(C#N)c3o2)c1C [(R)-1-((7-cyano-2-(3′-((2-(difluoromethyl)-7-((3-hydroxypyrrolidin-1-yl)methyl)pyrido[3,2-d]pyrimidin-4-yl)amino)-2,2′-dimethyl-[1,1′-biphenyl]-3-yl)benzo[d]oxazol-5-yl)methyl)piperidine-4-carboxylic acid]
- XRPD analysis following static storage ([2]; 25° C./97% RH for 5 days): remained unchanged, however a loss in crystallinity was observed
- XRPD analysis following static storage ([2]; 40° C./75% RH for 5 days): remained unchanged, however a loss in crystallinity was observed
- hygroscopicity ([3]; GVS, 0-90% RH): very hygroscopic
- XRPD analysis following the GVS experiment ([3]; after GVS isotherm): remained unchanged
- weight uptake ([3]; between 0-90% RH, 25° C.): 19.5 % w/w
